From PMC10706087, “The Subtype Selectivity in Search of Potent Hypotensive Agents among 5,5-Dimethylhydantoin Derived α1-Adrenoceptors Antagonists” (International Journal of Molecular Sciences, 2023)
Where “and” joins values, the source holds several entries; their conditions need not be identical. Identical values can stand only once.

Assays:
[1] = system: arterial blood pressure of normotensive Wistar rats; test: Influence on blood pressure in normotensive anesthetized rats after i.v. administration; format: in vivo, rat; conditions: for Diastolic blood pressure / Systolic blood pressure: mean, n = 6
Procedure: In the next step, the hypotensive activity of novel compounds 1–3, 5–9, and 11–14 was determined after i.v. administration to normotensive anesthetized rats. All results are shown in Supplementary Table S1.
The normotensive rats were anesthetized with thiopental (75 mg/kg) by intraperitoneal injection (i.p.). The left carotid artery was cannulated with a polyethylene tub filled with heparin in saline to facilitate pressure measurements using a PowerLab Apparatus (ADInstruments, Sydney, Australia). Blood pressure was measured immediately before administration of the tested compounds or vehicle—time 0 min (initial blood pressure) and 60 min thereafter. Initial blood pressure before administration of the tested chemicals in all experimental groups was similar. The tested compounds were dissolved in a specific vehicle: ethyl alcohol 5% − kolliphor 5% − water 90%. All tested chemicals were administrated intravenously (i.v.) at a constant volume of 1 mL/kg after 20 min of stabilization period. The compounds were tested at a starting dose of 2 mg/kg. If the hypotensive activity was found, the dose was reduced by half. The dosing was continued until the hypotensive effects disappeared. Urapidil was used as a reference compound.
(§1) All statistics were performed using GraphPad Prism, Version 6.0 (GraphPad Software, San Diego, CA, USA). In the radioligand binding study, data were analyzed by a one-site curve-fitting equation, and inhibition constants (Ki) values were calculated via the Cheng-Prusoff equation [63]. In functional studies, data were analyzed using a sigmoidal dose-response (variable slope) equation. Arterial blood pressure data were analyzed using a two-way ANOVA with Sidak’s post-hoc test for multiple comparisons. A p < 0.05 was considered statistically significant.

[2] = target: T1, human adrenergic receptor α1A (Homo sapiens, UniProt P35348); test: Intrinsic activity, aequorin luminescence functional assay at α1A-AR; format: cell-based; conditions: for α1A-AR Profile: agonist/antagonist profile; for IC50: cells expressing aequorin and human α1A, against phenylephrine, means of three independent experiments in duplicates; for Selectivity Ratio α1B/α1A: selectivity for α1A-AR (IC50(α1B-AR)/IC50(α1A-AR))
T1 sequence (P35348 1-466): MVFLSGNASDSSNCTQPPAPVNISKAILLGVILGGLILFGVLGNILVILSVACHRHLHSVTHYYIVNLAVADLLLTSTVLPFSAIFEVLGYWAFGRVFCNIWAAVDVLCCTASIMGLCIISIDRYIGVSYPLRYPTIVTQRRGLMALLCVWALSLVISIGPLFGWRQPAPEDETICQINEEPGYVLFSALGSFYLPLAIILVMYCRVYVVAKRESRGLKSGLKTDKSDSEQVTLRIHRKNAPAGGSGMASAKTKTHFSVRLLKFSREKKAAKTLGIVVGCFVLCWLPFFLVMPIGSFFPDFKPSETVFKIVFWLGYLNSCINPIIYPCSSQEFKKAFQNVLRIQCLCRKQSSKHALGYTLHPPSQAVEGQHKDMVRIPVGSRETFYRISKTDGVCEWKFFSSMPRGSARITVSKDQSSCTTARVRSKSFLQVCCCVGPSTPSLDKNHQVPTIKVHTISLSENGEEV
Procedure: (§2) The subtype selectivity for α1A and α1B was calculated as IC50(α1B-AR)/IC50(α1A-AR) and IC50(α1A-AR)/IC50(α1B-AR) ratio, respectively.
(§3) Intrinsic activity at the α1-AR subtypes studies were performed using the cells expressing mitochondrially-targeted aequorin and one of the human adrenergic receptor α1A or α1B (PerkinElmer, Boston, MA, USA), according to the manufacturer’s instructions. For measurement, frozen cells were thawed and re-suspended in 10 mL of assay buffer containing 5 μM “Coelenterazine h”. This cell suspension was put in a 10 mL Falcon tube, fixed onto a rotating heel, and incubated overnight at rt in the dark (8 rpm; 45° angle). Cells were diluted with Assay Buffer to 5000 cells/20 μL. […] The light emitted was recorded for 20 s. Cells with antagonists were incubated for 15 min at room temperature. […] Luminescence was measured using the multidetection microplate reader (POLARstar Omega, BMG LABTECH, Ortenberg, Germany).
as §1

[3] = target: T2, human adrenergic receptor α1B (Homo sapiens, UniProt P35368); test: Intrinsic activity, aequorin luminescence functional assay at α1B-AR; format: cell-based; conditions: for α1B-AR Profile: agonist/antagonist profile; for IC50: cells expressing aequorin and human α1B, against phenylephrine, means of three independent experiments in duplicates; for Selectivity Ratio α1A/α1B: selectivity for α1B-AR (IC50(α1A-AR)/IC50(α1B-AR))
T2 sequence (P35368 1-520): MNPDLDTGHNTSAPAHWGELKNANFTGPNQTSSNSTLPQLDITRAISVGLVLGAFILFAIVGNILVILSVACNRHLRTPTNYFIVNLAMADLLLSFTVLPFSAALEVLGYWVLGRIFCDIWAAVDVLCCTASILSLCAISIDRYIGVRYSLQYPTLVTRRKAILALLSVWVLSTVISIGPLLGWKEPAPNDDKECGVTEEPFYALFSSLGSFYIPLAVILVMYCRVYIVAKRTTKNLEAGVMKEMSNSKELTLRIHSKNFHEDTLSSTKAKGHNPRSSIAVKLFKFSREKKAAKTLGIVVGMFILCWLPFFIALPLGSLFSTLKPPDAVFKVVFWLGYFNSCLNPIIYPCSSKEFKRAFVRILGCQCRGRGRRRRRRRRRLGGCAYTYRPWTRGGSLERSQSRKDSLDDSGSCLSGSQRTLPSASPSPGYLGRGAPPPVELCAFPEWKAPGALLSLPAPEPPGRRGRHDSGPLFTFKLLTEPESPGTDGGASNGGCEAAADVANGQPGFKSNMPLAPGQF
Procedure: as §2, §3, §1

[4] = target: α1-adrenoceptors (α1-ARs), rat cerebral cortex; test: Radioligand binding assay with [3H]-prazosin, affinity for α1-ARs; conditions: three independent experiments in duplicates, read-out: α1-adrenoceptor affinity Ki
Procedure: In the first step, all synthesized compounds (1–15) were tested in vitro for their affinity for α1-ARs on rat cerebral cortex by the radioligand binding assay using [^3H]-prazosin as a specific radioligand.
The affinity for α1-ARs was determined by radioligand binding assay on rat cerebral cortex using [3H]-prazosin as a specific radioligand. The brains were homogenized in 20 volumes of an ice-cold 50 mM Tris-HCl buffer (pH 7.6) and were centrifuged (MPW Med. Instruments, Warsaw, Poland) at 20,000× g for 20 min (0–4 °C). The cell pellet was resuspended in the Tris-HCl buffer and centrifuged again. Radioligand-binding assay was performed in plates (MultiScreen/Millipore, Burlington, MA, USA). The final incubation mixture (final volume 300 μL) consisted of 240 μL of the membrane suspension, 30 μL of [3H]-Prazosin (0.2 nM) solution, and 30 μL of the buffer containing seven to eight concentrations (10^−11 to 10^−4 M) of the tested compounds. For measuring the unspecific binding, phentolamine, 10 μM (in the case of [3H]-Prazosin) was applied. The incubation was terminated by rapid filtration over glass fiber filters (Whatman GF/C, Sigma-Aldrich) using a vacuum manifold (Millipore). The filters were then washed twice with the assay buffer and placed in scintillation vials with a liquid-scintillation cocktail. Radioactivity was measured in a WALLAC 1409 DSA liquid-scintillation counter (BioSurplus, San Diego, CA, USA).
as §1

[5] = 0.0625 mg/kg i.v., 0 min (initial, before administration)
[6] = i.v., normotensive anesthetized rats
[7] = 2.0 mg/kg i.v., 0 min (initial, before administration)

| α1A-AR Profile [2] | IC50 [2] | Selectivity Ratio α1B/α1A [2] | melting point [°C] | α1B-AR Profile [3] | IC50 [3] | Selectivity Ratio α1A/α1B [3] | Ki [4] [nM] | SMILES | effect on systolic and diastolic blood pressure (in words) [1, 6] | Diastolic blood pressure [1, 7] | Systolic blood pressure [1, 7] | Diastolic blood pressure ([1]; 2.0 mg/kg i.v., 5 min) | Systolic blood pressure ([1]; 2.0 mg/kg i.v., 5 min) | Diastolic blood pressure ([1]; 2.0 mg/kg i.v., 10 min) | Systolic blood pressure ([1]; 2.0 mg/kg i.v., 10 min) | Diastolic blood pressure ([1]; 2.0 mg/kg i.v., 20 min) | Systolic blood pressure ([1]; 2.0 mg/kg i.v., 20 min) | Diastolic blood pressure ([1]; 2.0 mg/kg i.v., 30 min) | Systolic blood pressure ([1]; 2.0 mg/kg i.v., 30 min) | Diastolic blood pressure ([1]; 2.0 mg/kg i.v., 40 min) | also measured |
| --- | --- | --- | --- | --- | --- | --- | --- | --- | --- | --- | --- | --- | --- | --- | --- | --- | --- | --- | --- | --- | --- |
| Antagonist | < 100 nM and 0.02 nM | 0.10 | 205 to 207 | Antagonist | < 100 nM and < 11 nM and 0.002 nM | 10.00 | 12.7 | COc1ccccc1N1CCN(CCCCCCN2C(=O)N(Cc3ccc(Cl)cc3Cl)C(=O)C2(C)C)CC1.Cl [Compound 5, 3-(2,4-dichlorobenzyl)-1-(6-(4-(2-methoxyphenyl)piperazin-1-yl)hexyl)-5,5-dimethylimidazolidine-2,4-dione hydrochloride] | statistically significant reduction | – | – | – | – | – | – | – | – | – | – | – | Diastolic blood pressure [1, 5]: 92.0; Systolic blood pressure [1, 5]: 128.8; Diastolic blood pressure ([1]; 0.0625 mg/kg i.v., 5 min): 87.7; Systolic blood pressure ([1]; 0.0625 mg/kg i.v., 5 min): 121.0; Diastolic blood pressure ([1]; 0.0625 mg/kg i.v., 10 min): 84.2; Systolic blood pressure ([1]; 0.0625 mg/kg i.v., 10 min): 116.8; Diastolic blood pressure ([1]; 0.0625 mg/kg i.v., 20 min): 81.7; Systolic blood pressure ([1]; 0.0625 mg/kg i.v., 20 min): 114.2; Diastolic blood pressure ([1]; 0.0625 mg/kg i.v., 30 min): 82.7; Systolic blood pressure ([1]; 0.0625 mg/kg i.v., 30 min): 113.3; Diastolic blood pressure ([1]; 0.0625 mg/kg i.v., 40 min): 81.7; Systolic blood pressure ([1]; 0.0625 mg/kg i.v., 40 min): 114.7; Diastolic blood pressure ([1]; 0.0625 mg/kg i.v., 50 min): 81.8; Systolic blood pressure ([1]; 0.0625 mg/kg i.v., 50 min): 116.8; Diastolic blood pressure ([1]; 0.0625 mg/kg i.v., 60 min): 83.3; Systolic blood pressure ([1]; 0.0625 mg/kg i.v., 60 min): 116.3; hypotensive dose lower than that of urapidil ([1]; 0.0625 vs. 1.0 mg/kg): 16 fold; lowest hypotensive (effective) dose [1, 6]: 0.0625 mg/kg |
| Antagonist | 5910 nM | 0.15 | 196 to 198 | Antagonist | 905 nM | 6.53 | 53 | CC1(C)C(=O)N(Cc2ccc(Cl)cc2Cl)C(=O)N1CC(O)CN1CCN(c2ccccc2)CC1.Cl (centres unmarked) [Compound 6, 3-(2,4-dichlorobenzyl)-1-(2-hydroxy-3-(4-phenylpiperazin-1-yl)propyl)-5,5-dimethylimidazolidine-2,4-dione hydrochloride] | – | 98.2 | 134.2 | 87.2 | 124.2 | 90.3 | 125.2 | 89.7 | 126.3 | 89.0 | 125.0 | 89.0 | Systolic blood pressure ([1]; 2.0 mg/kg i.v., 40 min): 126.7; Diastolic blood pressure ([1]; 2.0 mg/kg i.v., 50 min): 89.2; Systolic blood pressure ([1]; 2.0 mg/kg i.v., 50 min): 125.5; Diastolic blood pressure ([1]; 2.0 mg/kg i.v., 60 min): 88.7; Systolic blood pressure ([1]; 2.0 mg/kg i.v., 60 min): 125.8 |
| Antagonist | 162 nM | 2.21 | 147 to 149 | Antagonist | 359 nM | 0.45 | 26 | CC1(C)C(=O)N(Cc2ccc(Cl)cc2Cl)C(=O)N1CC(O)CN1CCN(c2ccccc2C#N)CC1.Cl (centres unmarked) [Compound 11, 3-(2,4-dichlorobenzyl)-1-(3-(4-(2-cyanophenyl)piperazin-1-yl)-2-hydroxypropyl)-5,5-dimethylimidazolidine-2,4-dione hydrochloride] | no significant changes | 91.7 | 128.5 | 84.0 | 117.0 | 80.7 | 112.8 | 79.7 | 113.0 | 79.8 | 112.5 | 82.0 | Systolic blood pressure ([1]; 2.0 mg/kg i.v., 40 min): 113.8; Diastolic blood pressure ([1]; 2.0 mg/kg i.v., 50 min): 82.3; Systolic blood pressure ([1]; 2.0 mg/kg i.v., 50 min): 116.3; Diastolic blood pressure ([1]; 2.0 mg/kg i.v., 60 min): 81.7; Systolic blood pressure ([1]; 2.0 mg/kg i.v., 60 min): 118.2; selectivity for α1A-AR over α1B-AR ([2]; from IC50 ratio): ~ 2 fold |
